{
  "source": "patent US12427192B2",
  "about": "“Water soluble adjuvant and composition containing same” (Sumitomo Pharma Co., Ltd., priority 2019, dated 2025)",
  "key": {"[1]": {"system": "HLA-A*02:01 transgenic mouse", "assay": "Test 15: in vivo adjuvant activity, cocktail vaccine j (hydrogel formulation), IFNγ ELISPOT", "conditions": "added to cocktail vaccine j (hydrogel formulation); 0.4 nmol per body, twice; FIG. 17 and 18", "procedure": "(§1) Evaluation of In Vivo Adjuvant Activity in HLA-A*02:01 Transgenic Mouse\nThe in vivo adjuvant activity of the compound of Example 1 was evaluated in the following procedure. To a vaccine (hydrogel formulation) comprising Compound of formula 4 prepared in Reference example 8 and Peptide SEQ ID No. 3 prepared in Reference example 3 (hereinafter, referred to as “cocktail vaccine j”) was added the compound prepared in Example 1 to prepare a vaccine. The vaccine was administered to a HLA-A*02:01 transgenic mouse, and the adjuvant activity of the vaccine was evaluated by the method of testing antigen-specific CTL induction.\nFor example, the above hydrogel formulation was prepared as follows. Compound of formula 4, Peptide SEQ ID No. 3, and polyoxyethylene(196)polyoxypropylene(67) glycol were mixed with pH 2.5 buffer (10 mM tartaric acid) to adjust each concentration to 1.5 mg/mL, 1.125 mg/mL, and 200 mg/mL, respectively. The mixture was […] to give a hydrogel formulation, cocktail vaccine j. The amount of the preparation was adjusted as appropriate.\nCocktail vaccine j was injected to mice intradermally at the tail base area in an amount for administering 300 μg of Compound of formula 4 per body and 225 μg of Peptide SEQ ID No. 3 per body. […] Then, after removal of the supernatant from the wells, stained spots on the ELISPOT plate were counted."}, "[2]": {"system": "HLA-A*02:01 transgenic mouse", "assay": "Test 16: in vivo adjuvant activity, cocktail vaccine k (liposome formulation 1), IFNγ ELISPOT", "conditions": "added to cocktail vaccine k (liposome formulation 1); 0.4 nmol per body, twice; FIG. 19", "procedure": "as §1\nThe in vivo adjuvant activity of the compound of Example 1 was evaluated in the following procedure. To a vaccine (liposome formulation 1) comprising Compound of formula 4 prepared in Reference example 8 and Peptide SEQ ID No. 3 prepared in Reference example 3 (hereinafter, referred to as “cocktail vaccine k”) was added the compound prepared in Example 1 to prepare a vaccine. The vaccine was administered to a HLA-A*02:01 transgenic mouse, and the adjuvant activity of the vaccine was evaluated by the method of testing antigen-specific CTL induction.\nFor example, the above liposome formulation 1 was prepared as follows. 47.1 mg of hydrogenated soybean phosphatidylcholine and 15.47 mg of cholesterol were dissolved in t-butyl alcohol, and the mixture was lyophilized. […]\nCocktail vaccine k was injected to mice intradermally at the tail base area in an amount for administering 500 μg of Compound of formula 4 per body and 375 μg of Peptide SEQ ID No. 3 per body. […] Then, after removal of the supernatant from the wells, stained spots on the ELISPOT plate were counted."}},
  "data": [
    {"smiles": "CCCCCNc1nc(N)nc(C)c1Cc1ccc(CN(C)CCOCCOCCOCCOCCO)cc1OC", "note": "[Example 1, 1-(4-{[2-amino-4-methyl-6-(pentylamino)pyrimidin-5-yl]methyl}-3-methoxyphenyl)-2-methyl-5,8,11,14-tetraoxa-2-azahexadecan-16-ol·trifluoroacetate]", "values": [
      {"measurement": "CTL counts responsive to Peptide SEQ ID No. 1 or SEQ ID No. 4 compared with adding no compound", "setting": "[1]", "value": "more"},
      {"measurement": "CTL counts responsive to Peptide SEQ ID No. 1 compared with adding no compound", "setting": "[2]", "value": "more"}
    ]}
  ]
}
